# From patent US5280014A, “Treatment of obesity and essential hypertension and related disorders” (Amylin Pharmaceuticals, Inc., priority 1991, dated 1994)
# Legend:
# [1] = tested on: isolated soleus muscle from rats; assay: amylin antagonist assay: incorporation of radiolabelled glucose into glycogen in isolated soleus muscle; format: cell-based, rat
# Procedure: Insulin was obtained as Humulin-R, 100 U/mL, recombinant human insulin (Eli Lilly, Indianapolis, Ind.). […] An antagonist assay was performed in vitro using the isolated soleus muscle from rats.
# The right and left soleus muscles of 4-hour fasted rats were removed immediately after decapitation of the animals, divided in half and temporarily placed in physiological saline. Muscles were assigned to different treatment groups so that the 4 muscle pieces from each animal were evenly distributed among the 9 flasks representing the different assay conditions. […] Pharmacologically active agents were added to the 10mL of medium to result in the above stated concentrations and mixtures. […]
# Dissolved glycogen was precipitated out by addition of 3 mL absolute ethanol and cooling to -20° C. overnight. […] The remaining glycogen was redissolved in water and scintillation fluid and counted for ^14 C.
# From a knowledge of the specific activity of ^14 C-glucose in the 5.5 mM glucose of the incubation medium, and the total ^14 C counts remaining in the glycogen extracted from each muscle, it was possible to determine the net rate of glycogen synthesis over the final 60 minute incubation period. This was normalized per mass of muscle and expressed as μmoles of glucosyl units incorporated into glycogen per hour per gram of muscle. […]
# [2] = tested on: normal rats; assay: intravenous amylin bolus in normal rats (hyperglycemia, respiratory quotient); format: in vivo, rat
# Excerpt: The hyperglycemia is partly accounted for by an increase in hepatic (endogenous) glucose output and partly by an increased impediment in peripheral glucose disposal.
# [3] = tested on: isolated incubated skeletal muscles of the rat; assay: effect of amylin on glucose uptake and glycogen synthesis in isolated incubated skeletal muscle; format: cell-based
# [4] = tested on: isolated adipocytes; conditions: Cooper et al. 1988; cited from earlier work
# [5] = tested on: isolated adipocytes; assay: formation of CO2 or triacylglycerol from glucose in isolated adipocytes; format: cell-based
# [6] = tested on: anaesthetised rats; assay: hyperinsulinemic euglycemic glucose clamp in rats infused with insulin and CGRP; conditions: for steady-state glucose infusion rate necessary to maintain euglycemia: FIG. 2A: insulin 1.8 mU/kg/min for 210 min, CGRP 0.02 ug/kg/min added from 80-150 min; for hepatic glucose output (HGO) / suppression of hepatic glucose output (HGO): FIG. 2B clamp, insulin alone or insulin in the presence of CGRP; for suppression of hepatic glucose output (HGO): from basal 11.2±0.7 mg/kg/min; for mean steady-state glucose infusion rate: FIG. 2B: CGRP 0.02 ug/kg/min plus insulin 1.8 mU/kg/min for 75 min, then insulin alone for 130 min; for mean steady-state plasma insulin level: insulin 1.8 mU/kg/min
# Excerpt: In these experiments, the overall glucose disposal rate (GDR) equals the glucose rate plus hepatic glucose output (HGO).
# In addition to stimulation of peripheral glucose disposal, another important in vivo glucoregulatory effect of insulin is to inhibit HGO.
# [7] = tested on: BC3H-1 myocytes; assay: insulin-stimulated glucose uptake in cultured BC3H-1 myocytes; format: cell-based; conditions: 10^-8 M CGRP, all insulin concentrations, FIG. 4
# Procedure: (§1) In vitro studies in isolated adipocytes and cultured BC3H-1 myocytes were also conducted. […] Since 80-90% of in vivo insulin-stimulated glucose disposal represents skeletal muscle glucose uptake, an in vitro muscle cell system was also examined.
# [8] = tested on: isolated adipocytes; assay: 2-deoxyglucose uptake in isolated adipocytes; format: cell-based
# Procedure: as §1
# [9] = tested on: spontaneously hypertensive (SHR) rats; conditions: continuous intravenous infusion of purified rat relaxin; single reported study; cited from earlier work
# [10] = FIG. 2B protocol, last 20 min of each period
substance,measurement,setting,value
amylin,decrease of insulin-stimulated rate of glycogen synthesis,"[1]; 20 nM amylin, 1000 μU/mL insulin",approximately 83%
same,persistence of hyperglycemia,[2]; 100 μg intravenous bolus,persists for several hours
same,time to hyperglycemia at diabetic levels,[2]; 100 μg intravenous bolus,15 to 30 min
same,blood glucose level reached (hyperglycemia),"[2]; 100 μg intravenous bolus, eight normal rats",around 200 mg/dL
same,change in respiratory quotient (RQ),"[2]; during somatostatin infusion (no endogenous insulin release), fasted animal",no change in RQ
same,change in respiratory quotient (RQ),"[2]; somatostatin absent, insulin allowed to increase",increase in respiratory quotient
same,reduction in the basal rate of glycogen synthesis,[3]; basal insulin concentration 1 uU/ml,30%
same,response of amylin-treated muscles to insulin,[3]; insulin concentration giving half-maximal stimulation in non amylin-treated muscles,no response to insulin
same,insulin concentration needed to overcome the effect of amylin in muscle,[3]; supra-physiological level,1000 uU/ml
same,effect on basal or insulin-stimulated incorporation of glucose into CO2 or triglyceride,[4],does not influence
same,effect on basal or insulin-stimulated rates of formation of CO2 or triacyglycerol,[5],no effect
calcitonin gene-related peptide [CGRP],inhibition of insulin-stimulated GDR,[6]; CGRP infusion rate 0.005 ug/kg/min,no inhibition
same,inhibition of insulin-stimulated GDR,[6]; CGRP infusion rate 0.01 ug/kg/min,intermediate effect
same,steady-state glucose infusion rate necessary to maintain euglycemia,[6],18.0 ± 0.1 mg/kg/min
same,hepatic glucose output (HGO),[6],8.0 mg/kg/min
same,suppression of hepatic glucose output (HGO),[6],29%
same,rise of GDR above basal,[6]; [10],7.4 ± 1.6 mg/kg/min
same,mean steady-state glucose infusion rate,[6],9.9 ± 0.3 mg/kg/min
same,effect on insulin-stimulated glucose uptake,[7],significantly inhibited
same,effect on basal or insulin-stimulated 2-deoxyglucose uptake,[8],no effect
insulin,increase in rate of glycogen synthesis,[1]; 1000 μU/mL insulin added to media,3.7 fold
same,steady-state glucose infusion rate necessary to maintain euglycemia,[6],26.7 ± 0.1 mg/kg/min
same,hepatic glucose output (HGO),[6],3.9 ± 2.7 mg/kg/min
same,suppression of hepatic glucose output (HGO),[6],69%
same,glucose disposal rate (GDR),"[6]; FIG. 2B protocol, 3H-glucose, last 20 min of each period, basal GDR 11.2±0.7",35.6 ± 1.3 mg/kg/min
same,rise of GDR above basal,[6]; [10],24 ± 0.9 mg/kg/min
same,mean steady-state glucose infusion rate,[6],32.3 ± 0.3 mg/kg/min
same,mean steady-state plasma insulin level,[6]; absence of the CGRP infusion,695±105 uU/ml
same,mean steady-state plasma insulin level,[6]; presence of the CGRP infusion,591±86 uU/ml
relaxin,effect on systolic blood pressure,[9],highly effective in reducing systolic blood pressure
